Reference: patent publication US6689813B2 (Biostatin Gyogyszerkutato-Fejleszto kft., priority 1998, dated 2004)
Where no end group is shown, it is not given here. [ ]: non-standard residue; d: D form. βAsp(indolinyl) = β-Asp(indolinyl) N-terminal residue

Key:
Wistar rats [1] = test: 0.5% dextran-induced non-neurogenic inflammation (foot swelling, plethysmometer) after chronic denervation; format: in vivo, rat
Procedure: This test is based on the fact that a non-neurogenic, so-called clearly chemical inflammation can be induced by chemical excitation (e.g. by dextran, carrageenin, formalin) on a chronically denervated body area at least 5 days following the transsection of the nerve. These chemical agents release inflammation-inducing substances (histamine, bradykinin, PAF, prostaglandins and leucotrienes) from immunocytes, chiefly from mast cells.
Dextran solution (0.1 ml, 0.5%) is administered into both feet, underneath the plantar skin of Wistar rats (5 to 7 animals in each group) anaesthetized by nembutal (40 mg/kg i.v.) 5 days after bilateral denervation (transsection of the saphenous and sciatic nerves) of the lower limbs. The pretreated animals received somatostatin (SS), ocreotide or TT-232 (10 μg/kg i.p.) 10 minutes earlier. Before the administration of dextran (0 minute value), then after 10, 20 and 30 minutes, respectively, the swelling of the feet was measured by using a plethysmometer (Ugo Basil). Dextran elicits the so-called clearly chemical inflammation in the feet deprived of nerve supply (innervation) through the transmitters released from the mast cells.
A dose/effect ratio was determined for each substance.

Wistar rats [2] = test: 1% mustard oil-induced neurogenic inflammation (Evans blue plasma extravasation, foot skin); format: in vivo, rat; details: for Decrease % (Evans blue extravasation vs control) / Evans blue extravasation: 20 μg/kg i.p.; for Decrease % (Evans blue extravasation vs control): 1% mustard oil; for Evans blue extravasation: 1% mustard oil on feet, control 169.525; for inhibition of mustard oil-induced neurogenic inflammation (in words): 20 μg/kg, 20 minutes after i.p. administration
Procedure: Thirty minutes after acute bilateral denervation of the lower limbs (transsection of the saphenous and sciatic nerves), 50 mg/kg of Evans blue dye was administered to the tail vein of nembutal-anaesthetized (pentobarbital, 40 mg/kg i.p.) Wistar rats (150-220 g body weight; 5 to 7 animals in each group). […] The mustard oil induces a so-called neurogenic inflammation by the selective stimulation of the peripheral endings of CSPAN's and by releasing the mediators being present therein (chiefly tachykinins and CGRP); this neurogenic inflammation appears as a vasodilatation in the area of arterioles and in the form of a plasma extravasation at the venular side. Since the dye Evans blue is bound to serum albumin in the vascular bed, its precipitation and accumulation in the upper skin surface of foot are proportional to the extent of plasma extravasation. Thus, the quantitative determination of intensity of the inflammation becomes possible. After the painting with mustard oil, the animals were bled, the foot dorsum skins were cut out and their weights were determined. The amount of dye extracted during 72 hours of incubation in formamide was determined at 620 nm on a spectrophotometer (Spectromon 195). The amount (expressed as μg) of the extravasated Evans blue related to one g of wet tissue was calculated by means of the following formula:
Evans blue (μg/g)=E×V×k/m
E is the light absorption of the solution, V means the volume (ml) of the solution, m is the weight […] of the skin cut out from the foot dorsum skin; and k is a constant determined on the basis of a dilution series, which is characteristic of the dye solution.

Wistar rats [3] = test: Analgetic action: vegetative (pseudoaffective) reflex responses to mustard oil and capsaicin under urethane anaesthesia; format: in vivo, rat; design: Increase in heart rate: unit not given here; details: 10 μg/kg i.p.
Excerpt: This test is based on the synchronous registration of several components of so-called pseudoaffective reflex responses, which can be induced on animals by pain-producing stimuli [Lim, R. K. S.: J. Comp. Neurol 118, 269-294 (1962)] under urethane anaesthesia.
A significant blood pressure increase of 45 mmHg as an average pressor response, heart rate increase of 85 (as an average) and hyperpnoea (the number of respirations increases by 61 per minute as an average) can be observed in control animals on the effect of strong chemonociceptive stimuli (painting of the lower limbs with 1% mustard oil or dropping a capsaicin solution of 100 μg/ml concentration into the eye) under urethane anaesthesia.
The blood pressure, heart rate and respiration of intact Wistar rats (5 to 7 animals in each group, with a body weight of 250 to 350 g) were continuously registered for 40 minutes through an arterial cannula as well as double ramifying trachea cannula. Ten minutes before beginning the measurement, the pretreated animals received intraperitoneally 10 μg/kg of somatostatin (SS), octreotide or TT-232, respectively. Both lower limbs of the animals were painted with mustard oil in the 3rd minute and capsaicin solution was dropped into their eyes in the 23rd minute. The vegetative responses given on these nociceptive stimuli were evaluated by using a specific computer program.

neurogenic inflammation = details: sodium salicylate 250 mg/kg i.v.; amidopyridine 200 mg/kg p.o.; phenylbutazone 100 mg/kg i.v.; flufenamic acid 20 mg/kg i.v.; indomethacin 10 mg/kg p.o.; cited from earlier work
[4] = Table 2.a, 10 mg/kg, 10 minutes
[5] = Table 2.a, 10 mg/kg, 30 minutes

O=C(O)Cc1ccccc1Nc1c(Cl)cccc1Cl [Diclofenac, reference compound]
foot swelling % (Wistar rats [1]; Table 2.a, 5 mg/kg, 20 minutes): 48.73 ± 4.84% | foot swelling % (Wistar rats [1]; Table 2.a, 5 mg/kg, 30 minutes): 53.07 ± 3.95% | foot swelling % (Wistar rats [1]; [4]): 24.35 ± 3.31% | foot swelling % (Wistar rats [1]; [5]): 42.61 ± 3.55% | foot swelling % (Wistar rats [1]; Table 2.a, 20 mg/kg, 10 minutes): 21.87 ± 2.84% | foot swelling % (Wistar rats [1]; Table 2.a, 30 mg/kg, 10 minutes): 26.02 ± 1.79% | foot swelling % (Wistar rats [1]; Table 2.a, 30 mg/kg, 30 minutes): 40.20 ± 1.73%

O=C(NN=Cc1ccc(O)c(O)c1)C(=O)Nc1cccc([N+](=O)[O-])c1 [HDL 2722, 3′-nitrophenylamino-2-oxoacetyl-3″,4″-dihydroxyphenyl-hydra-zone]
inhibition of 1% mustard oil-induced neurogenic inflammation (plasma extravasation) (Wistar rats [2]; 50 μg): 62%

Cc1cnc(NC(=O)C2=C(O)c3ccccc3S(=O)(=O)N2C)s1 [Meloxicam, reference compound]
foot swelling % (Wistar rats [1]; Table 2.a, 0.2 mg/kg, 10 minutes): 27.60 ± 3.56% | foot swelling % (Wistar rats [1]; Table 2.a, 0.2 mg/kg, 20 minutes): 39.99 ± 3.65% | foot swelling % (Wistar rats [1]; Table 2.a, 0.2 mg/kg, 30 minutes): 45.81 ± 2.9% | foot swelling % (Wistar rats [1]; Table 2.a, 0.5 mg/kg, 10 minutes): 27.24 ± 3.56% | foot swelling % (Wistar rats [1]; Table 2.a, 0.5 mg/kg, 20 minutes): 38.86 ± 2.86% | foot swelling % (Wistar rats [1]; Table 2.a, 0.5 mg/kg, 30 minutes): 44.92 ± 2.99% | foot swelling % (Wistar rats [1]; Table 2.a, 1 mg/kg, 10 minutes): 24.34 ± 2.57% | foot swelling % (Wistar rats [1]; Table 2.a, 1 mg/kg, 20 minutes): 36.46 ± 3.44% | foot swelling % (Wistar rats [1]; Table 2.a, 1 mg/kg, 30 minutes): 46.63 ± 3.2% | foot swelling % (Wistar rats [1]; [4]): 20.39 ± 2.26% | foot swelling % (Wistar rats [1]; Table 2.a, 10 mg/kg, 20 minutes): 33.36 ± 1.85% | foot swelling % (Wistar rats [1]; [5]): 39.34 ± 3.75%

C[C@@H](O)[C@@H]1NC(=O)[C@H](CCCCN)NC(=O)[C@@H](Cc2c[nH]c3ccccc23)NC(=O)[C@H](Cc2ccccc2)NC(=O)[C@@H](NC(=O)[C@H](N)Cc2ccccc2)CSSC[C@@H](C(=O)N[C@H](CO)[C@@H](C)O)NC1=O [Octreotide, reference compound]
Decrease % (Evans blue extravasation vs control) (Wistar rats [2]): 3.952% | Evans blue extravasation (Wistar rats [2]): 162.826 µg/g | inhibition of mustard oil-induced neurogenic inflammation (in words) (Wistar rats [2]): inactive | prevention of dextran-induced non-neurogenic inflammation (in words) (Wistar rats [1]; 10 μg/kg, even 40 minutes following the pretreatment): completely inactive | foot swelling % (Wistar rats [1]; Table 2, 10 μg/kg i.p. 10 min before dextran, 10 minutes, control 32.97): 31.36% | foot swelling % (Wistar rats [1]; Table 2, 10 μg/kg i.p. 10 min before dextran, 20 minutes, control 49.695): 47.7% | foot swelling % (Wistar rats [1]; Table 2, 10 μg/kg i.p. 10 min before dextran, 30 minutes, control 56.68): 54.8% | protection against pseudoaffective reflex triad elicited by mustard oil and capsaicin (in words) (Wistar rats [3]; 10 minutes before mustard oil): completely inactive | Increase in respiration rate (Wistar rats [3]; after dropping capsaicin solution into the eye, control 47.5): 42 per minute | Increase in mean arterial pressure (Wistar rats [3]; after dropping capsaicin solution into the eye, control 55): 47.13 mmHg | Increase in heart rate (Wistar rats [3]; after dropping capsaicin solution into the eye, control 143): 127 | Increase in mean arterial pressure (Wistar rats [3]; after painting the feet by mustard oil, control 45.4): 43.2 mmHg | Increase in respiration rate (Wistar rats [3]; after painting the feet by mustard oil, control 60.75): 45 per minute | Increase in heart rate (Wistar rats [3]; after painting the feet by mustard oil, control 84.8): 81.2

Cc1c(N(C)C)c(=O)n(-c2ccccc2)n1C [amidopyridine]
significant inhibitory effect on neurogenic inflammation (neurogenic inflammation): none

O=C(O)c1ccccc1Nc1cccc(C(F)(F)F)c1 [flufenamic acid]
significant inhibitory effect on neurogenic inflammation (neurogenic inflammation): none

COc1ccc2c(c1)c(CC(=O)O)c(C)n2C(=O)c1ccc(Cl)cc1 [indomethacin]
significant inhibitory effect on neurogenic inflammation (neurogenic inflammation): none

O=C([O-])c1ccccc1O.[Na+] [sodium salicylate]
significant inhibitory effect on neurogenic inflammation (neurogenic inflammation): none

D-Phe-Cys-Tyr-D-Trp-Gly-Cys-Thr-NH2 ([dF]CY[dW]GCT-NH2; cysteine pairing not given here) [VZ-934]
Decrease % (Evans blue extravasation vs control) (Wistar rats [2]): 44.7% | Evans blue extravasation (Wistar rats [2]): 93.7 µg/g | inhibition of mustard oil-induced neurogenic inflammation (in words) (Wistar rats [2]): significantly inhibited

D-Phe-Cys-Tyr-D-Trp-Lys-Cys-Trp-NH2 ([dF]CY[dW]KCW-NH2; cysteine pairing not given here) [VZ-924]
Decrease % (Evans blue extravasation vs control) (Wistar rats [2]): 55.62% | Evans blue extravasation (Wistar rats [2]): 75.26 µg/g | inhibition of mustard oil-induced neurogenic inflammation (in words) (Wistar rats [2]): significantly inhibited

D-Phe-Cys-Tyr-Gly-Lys-Cys-Thr-NH2 ([dF]CYGKCT-NH2; cysteine pairing not given here) [VZ-1021]
Decrease % (Evans blue extravasation vs control) (Wistar rats [2]): 54.72% | Evans blue extravasation (Wistar rats [2]): 76.72 µg/g | inhibition of mustard oil-induced neurogenic inflammation (in words) (Wistar rats [2]): significantly inhibited

β-Asp(indolinyl)-Cys-Tyr-D-Trp-Lys-Cys-Thr-NH2 ({βAsp(indolinyl)}-CY[dW]KCT-NH2; cysteine pairing not given here) [VZ-927]
Decrease % (Evans blue extravasation vs control) (Wistar rats [2]): 60.44% | Evans blue extravasation (Wistar rats [2]): 67.07 µg/g | inhibition of mustard oil-induced neurogenic inflammation (in words) (Wistar rats [2]): significantly inhibited
